In patent publication US7399746B2, “Agents for wound healing” (McGill University, priority 2004, dated 2008):

Experiments:
[1] = tested on: primary human skin fibroblasts; assay: in vitro wound healing, monolayer of skin fibroblasts; format: cell-based; details: FIG. 1B; for wound reduction: serum-free medium, two days
Method: (§1) Wound healing was measured using an art-established monolayer cell culture method (Nwomeh, et al. (1998) supra). Cells to be studied were plated in 48-well tissue culture plates at a cell density appropriate for obtaining confluent monolayers after one day in culture. Circular wounds were made in the center of the wells by placing a siliconized 200 μL tip into the well and lifting the cells from the plastic by applying suction. The successful creation of wounds was analysed using a phase contrast microscope. Cells were subsequently treated with control media or media containing the factors to be tested. The size of the wounds was immediately recorded for each well. The wounds were large enough to allow for a long-term incubation thereby improving the accuracy of the determinations. After one or two days in culture (depending on the cells studied), the size of the wounds was measured again. Wound dimensions were evaluated with a Leica MZFL11 stereo microscope. Computer images of the wounds were recorded with imaging software and contours of each wound before and after treatment were traced manually. Collections of contours for all wounds were converted to BMP files and quantitated using the Band-Leader program. The results were expressed as % reduction of wounds taking as 100% the reduction obtained in control cell cultures. No change corresponded to 0%, whereas complete closure corresponded to 100%. This system works well with close monitoring of cell densities. To prevent excess cell growth, the incubations were performed in serum-free medium supplemented with a single protein, transferrin (5 μg/mL). The absence of serum slowed down the healing process (one day in LLC-PK1 cells, two days in all other cultures), but reflected more accurately the situation likely to prevail in topical applications in vivo. Wound closure depends on the migration of cells at the sites of the wound and on cell proliferation. In these experiments, wound closure was being analysed, independent of the mechanism involved.
Cells analysed in the in vitro assay disclosed herein included monolayers of LLC-PK1 cells, a porcine kidney epithelial cell line used as an experimental system of wound healing for acute renal failure (Sponsel, et al. (1994) supra); monolayers of primary human skin fibroblasts; and monolayers of human skin keratinocytes. […] This made measurements of keratinocyte wound closure particularly difficult and time consuming. According, wound closure measurements of a cross created with two perpendicular cell lesions was particularly effective for analysing human skin keratinocytes (Sponsel, et al. (1994) supra).

[2] = tested on: human skin keratinocytes; assay: in vitro wound healing, monolayer of skin keratinocytes; format: cell-based; details: FIG. 1C
Method: as §1, with “The absence of serum slowed down the healing process (one day in LLC-PK1 cells, two days in all other cultures), but reflected more accurately the situation likely to prevail in topical applications in vivo. Wound closure depends on the migration of cells at the sites of the wound and on cell proliferation.” left out
Cells analysed in the in vitro assay disclosed herein included monolayers of LLC-PK1 cells, a porcine kidney epithelial cell line used as an experimental system of wound healing for acute renal failure (Sponsel, et al. (1994) supra); monolayers of primary human skin fibroblasts; and monolayers of human skin keratinocytes. […]

[3] = tested on: LLC-PK1 cells, a porcine kidney epithelial cell line; assay: in vitro wound healing, monolayer of kidney epithelial cells; format: cell-based; details: FIG. 1A
Method: as §1, with “The wounds were large enough to allow for a long-term incubation thereby improving the accuracy of the determinations.” left out, “No change corresponded to 0%, whereas complete closure corresponded to 100%. This system works well with close monitoring of cell densities. To prevent excess cell growth, the incubations were performed in serum-free medium supplemented with a single protein, transferrin (5 μg/mL). The absence of serum slowed down the healing process (one day in LLC-PK1 cells, two days in all other cultures), but reflected more accurately the situation likely to prevail in topical applications in vivo. Wound closure depends on the migration of cells at the sites of the wound and on cell proliferation.” left out, “involved. […]” for “involved.”

[4] = tested on: human skin fibroblast cultures; assay: cell proliferation, Alamar blue, skin fibroblasts; format: cell-based; details: two days, FIG. 2B
Method: (§2) The effects of IGF-API, API and C26 on cell proliferation were also evaluated using the art-established Alamar blue technique developed for hematopoietic cells or endothelial cells (DiFalco, et al. (1997) Biochem. J. 326:407-13; DiFalco & Congote (2002) Cytokine 18 (1):51-60; Sandoval, et al. (2002) supra). Five thousand cells per well were plated in 96-well plates and grown over night in complete cell culture medium. The cells were subsequently starved for one day in serum-free medium supplemented with 5 μg/mL bovine transferrin and 200 μg/mL fatty-acid free, tissue culture-tested, bovine serum albumin and incubated for two days in the presence of the API derivatives indicated. For experiments with the hepatoma cell line, Hep G2, only 3000 cells were plated per well.

[5] = tested on: kidney epithelial cells; assay: cell proliferation, Alamar blue, kidney epithelial cells; format: cell-based, porcine; details: two days, FIG. 2A
Method: as §2

[6] = tested on: hepatoma cell line Hep G2; assay: cell proliferation, Alamar blue, Hep G2; format: cell-based; details: Hep G2, 20 μM, FIG. 3B (n=21, p<0.001 for C26)
Method: as §2
(§3) Cell proliferation with EGF and C26 was also analysed for keratinocytes and Hep G2 cells. The number of experiments using keratinocytes with EGF was five, and 10 to 11 with C26. The number of experiments using Hep G2 with EGF and C26 was five, except for 20 nM EGF (n=8, P<0.05, paired t-test) and for 20 μM C26 (n=21, p<0.001, paired t-test and Student-Newman-Keuls test). All other P values were according to the Student-Newman-Keul multiple comparisons test.

[7] = tested on: human skin keratinocytes; assay: cell proliferation, Alamar blue, keratinocytes; format: cell-based
Method: as §2, §3

Q: With “API: alpha-1 proteinase inhibitor, also known as alpha-1-antitrypsin, the major physiological inhibitor of neutrophil elastase” as the substance, how does the “concentration with significant effect on wound reduction” value [1] read?
A: 0.02 µM

Q: What about the wound reduction [1] of the same substance?
A: significant, but lower than the effects obtained with IGF-API

Q: What about the “concentration with effect on wound reduction” value [2] of the same substance?
A: 8 nM

Q: What about the wound reduction [2] of the same substance?
A: marginal, but significant effect

Q: And the “concentration at which effective/active in wound reduction” value [3]?
A: 0.16 nM

Q: Which cell proliferation [4] does the source give for “C26: small peptide corresponding to the last 26 amino acids of API (SEQ ID NO:2) (PFVFLMIEQNTKSPLFMGKVVNPTQK)” here?
A: marginally stimulated cell proliferation

Q: What about the “concentration with significant effect on wound reduction” value [1] of the same substance?
A: 8 µM

Q: What about the wound reduction [1] of the same substance?
A: significant, but lower than the effects obtained with IGF-API

Q: What about the wound reduction [2] of the same substance?
A: no significant effect

Q: And the “concentration at which effective/active in wound reduction” value [3]?
A: 32 nM

Q: What about the cell proliferation [5] of the same substance?
A: marginally stimulated cell proliferation

Q: And the cell proliferation [6]?
A: significantly increased cell proliferation

Q: What about the “cell proliferation compared to EGF” value ([7]; equivalent concentrations of EGF, FIG. 3A) of the same substance?
A: higher than the effects of equivalent concentrations of epidermal growth factor

Q: What about the cell proliferation ([7]; two days, FIG. 2C) of the same substance?
A: marginally stimulated cell proliferation
